We go through 1 molecule from publication PMC10033154 (Journal of Molecular Structure, 2023).

A word on the IC50: it is the concentration at which inhibition is half-maximal.

This test concerns the target SARS-CoV-2 3CL protease (Severe acute respiratory syndrome coronavirus 2, UniProt P0DTD1). Nature of the test: FRET enzyme activity inhibition assay of SARS-CoV-2 3CLpro. In kind it is biochemical.

`COc1ccc(C=C[N+](=O)[O-])cc1OC` [compound f, 3,4-dimethoxyl-β-nitrostyrene]: the midpoint of inhibition, the IC50, lay at 5.07 µM.
